Source: patent publication US9949938B2, “CoQ10 (ubiquinone, ubiquinol), vitamin A (retinoid acid, retinol), vitamin E (tocotrienol, tocopherol) and methods of use” (AMERICAN RIVER NUTRITION, priority 2013, dated 2018)

Columns and labels:
[1] = CoQ10 with and without tocotrienol in hydrochloric acid (pH<2), 30 minutes, simulated gastric conditions; format: physicochemical; conditions: in the presence of tocotrienol versus without; HCl pH<2, 30 minutes
Protocol: 100 mg CoQ10 (ubiquinone or ubiquinol), with and without tocotrienol, was placed in a beaker with acid (hydrochloric acid) (pH<2) for 30 minutes to simulate gastric conditions.

[2] = gastric conditions, pH<2, 30 minutes; cited from earlier work

COC1=C(OC)C(=O)C(C/C=C(\C)CC/C=C(\C)CC/C=C(\C)CC/C=C(\C)CC/C=C(\C)CC/C=C(\C)CC/C=C(\C)CC/C=C(\C)CC/C=C(\C)CCC=C(C)C)=C(C)C1=O [CoQ10, 2,3-dimethoxy-5-methyl-6-decaprenil-1,4-benzoquinone]
CoQ10 content (both ubiquinone or ubiquinol) after acid [1]: higher content

COc1c(O)c(C)c(C/C=C(\C)CC/C=C(\C)CC/C=C(\C)CC/C=C(\C)CC/C=C(\C)CC/C=C(\C)CC/C=C(\C)CC/C=C(\C)CC/C=C(\C)CCC=C(C)C)c(O)c1OC [ubiquinol]
ubiquinol converted to ubiquinone [2]: about 50%
